The text below walks through data of patent publication US10889611B2, “Sialyltransferase inhibitors and uses thereof” (Academia Sinica, priority 2015, dated 2021).

In one series the test system is PANC-1 cells. Nature of the series: In vitro transwell invasion analysis, PANC-1 cells. In kind it is cell-based, human. The note with it: PANC-1 cells grown in fructose-containing medium, FIG. 4. The method, then:
Migration assays were done using a transwell, in which a polycarbonate filter pre-coated with Matrigel (8-μm pores, Millicell; Millipore, Billerica, Mass.) was inserted therein. Cells were serum-starved for 24 h and then seeded (5×10^5 cells per upper chamber) and treated with or without the present compound(s) (concentrations as indicated), and the assays were run for 6 h. Cells that had migrated to the underside of the inserted filter were stained with hematoxylin solution. The cells in the upper side of the inserted membrane were rubbed with a cotton swab. The migrated cells on the underside were pictured in a 200× magnification field and quantified.
In this example, the ability of the FCW34 in suppressing the migration and/or invasion of pancreatic cancer cells was investigated using in vitro transwell analysis and in vivo mice model bearing pancreatic cancer.

The next series concerns MDA-MB-231 cells. Nature of the series: Transwell migration assay, breast cancer cells. In kind it is cell-based, human. An excerpt: Migration assays were done using a transwell, in which a polycarbonate filter pre-coated with Matrigel (8-μm pores, Millicell; Millipore, Billerica, Mass.) was inserted therein. […] Cells that had migrated to the underside of the inserted filter were stained with hematoxylin solution. The cells in the upper side of the inserted membrane were rubbed with a cotton swab. The migrated cells on the underside were pictured in a 200× magnification field and quantified.

For another series, the system named is MDA-MB-231 breast cancer. The series can be described thus: Nude mice model of human MDA-MB-231 breast cancer. In kind it is in vivo. On the procedure: BALB/c mice (4-5 weeks old) were subcutaneously injected with 1×10^6 MDA-MB-231 cells to the mammary fat pad on day 0. Tumors were allowed to grow in the mice until the size of the tumor reached 100 mm^3, and then the animals were randomly assigned to 3 groups (n=6-8 per group): tumor (vehicle) control, 10 mg/kg the present compound (e.g., FCW34 or FCW66) treatment group. The present compound was intraperitoneally (i.p.) injected to test animals every three days. The growth and metastasis of the tumors were observed by IVIS imaging system, and the metastasized tumor tissues were collected on day 60, and measured for the volume (V) using calipers and calculated by the formula V=(L×W^2)/2, where L is the length and W is the width of tumor.
The effects of the sialyltransferase inhibitor in tumor growth and metastasis were investigated in a nude mice model of human MDA-MB-231 breast cancer established in accordance with procedures set forth in the “Materials and Methods” section. The MDA-MB-231/Luc cells (5×10^6 cells) were orthotopically injected into the mammary fat pad of nude mice. Then the mice were given FCW34 and vehicle, respectively, on day 20, and the tumor volume were evaluated by bioluminescence every 3 days using IVIS image analysis.

For series [1], the target named is T1, α2,3(N)-sialyltransferase ST3GALIII (Rattus norvegicus, UniProt Q02734).
T1 construct: purchased Calbiochem
T1 sequence (Q02734 1-374): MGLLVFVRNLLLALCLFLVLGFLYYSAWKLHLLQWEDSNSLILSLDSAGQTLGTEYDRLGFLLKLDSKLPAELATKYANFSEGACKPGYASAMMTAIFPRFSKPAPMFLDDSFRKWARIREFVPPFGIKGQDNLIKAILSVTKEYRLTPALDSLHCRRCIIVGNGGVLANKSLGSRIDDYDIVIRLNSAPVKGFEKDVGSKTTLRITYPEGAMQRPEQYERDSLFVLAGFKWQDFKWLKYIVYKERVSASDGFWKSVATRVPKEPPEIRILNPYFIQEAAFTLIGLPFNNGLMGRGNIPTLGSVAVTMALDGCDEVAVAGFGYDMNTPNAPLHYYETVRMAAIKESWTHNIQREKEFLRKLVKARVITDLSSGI
Nature of the series: Sialyltransferase activity assay, ST3GALIII. In kind it is biochemical. The note with it: calculated based on the concentration, of ST inhibitor used toward α2,3-O-ST3GALI, listed as 3 (FCW34). The method, then: The enzymes analyzed in the present study included rat ST3Gal(I), rat ST3Gal(III), and human ST6Gal(I). Rat ST3Gal(I) and rat ST3Gal(Ill), were purchased from Calbiochem®, while human ST6Gal(I) was purchased from RnDSystems.com.
(§1) Sialyltransferase inhibition assay […] was performed as follows: Sialyltransferase activity was determined by measuring the level of the end product of sialylated saccharides with reverse-phase HPLC. The assay mixtures contained the following components: 200 mM MES buffer; 100 mM NaCl; 0.5 mM EDTA; 0.01% Triton X-100; 1.4 mU ST3GALI; 2.5 mM T-antigen; 1 mM CMP-Neu5Ac and different concentration of Sialyltransferase inhibitors to a total volume of 50 μl. The assay mixture was incubated at 37° C. for 15 mins and then quenched by heating up to 101′C for 10 mins. The sialylated product was resolved by reversed-phase HPLC. Kinetic data were obtained by fitting the initial rate data to the nonlinear regression equation.
as §1, with “mU ST6GALI; 25 μM Galβ1-4GlcNAc;” for “mU ST3GALI; 2.5 mM T-antigen;”, “to 101° C.” for “to 101′C”, “product is” for “product was”, “resolved with” for “resolved by”
Effects of the present compounds on the activity of sialyltransferase, including α2,3(N)-sialyltransferase ST3GALIII, α2,6(N)-sialyltransferases ST6GALI, and α2,3(O)-sialyltransferase ST3GALI, were determined in accordance with procedures described in the “Materials and Methods” section, and results are summarized in Table 1.

In a further series the test system is PANC-1 pancreatic tumor. Nature of the series: Inhibition of pancreatic tumor growth in SCID mice. Type of series: in vivo. On the procedure: SCID mice (6 weeks old) were orthotopically injected with 1×10^5 human pancreatic cells PANC-1 grown in glucose-containing or fructose-containing medium with or without the presence of the present compound (e.g., FCW34, 5 μM) on day 0. The progression of the tumor was followed by bioluminescence IVIS image analysis, and the test animals were then sacrificed by cervical dislocation after 14 weeks, and respective tumors and the liver sections were collected, and analyzed by histochemical staining with SNA lectin to measure 2,6-sialylation levels utilizing FACS analysis.

The structures appear in SMILES notation. Marks after values point to notes of the source that are not given here. Where only a bound is given, the exact number is not on record here.

Regarding `C[C@H](CCC(=O)OCCOCCOCCN=[N+]=[N-])C1CC[C@H]2[C@@H]3CC[C@@H]4C[C@H](OC(=O)[C@H](CC(=O)O)Nc5ccc([N+](=O)[O-])c6nonc56)CC[C@]4(C)[C@H]3CC[C@]12C` (stereo partly drawn) [Compound 3, (3S)-4-(((3R,5R,8R,9S,10S,13R,14S)-17-((R)-5-(2-(2-(2-azidoethoxy)ethoxy)ethoxy)-5-oxopentan-2-yl)-10,13-dimethylhexadecahydro-1H-cyclopenta[a]phenanthren-3-yl)oxy)-3-((7-nitrobenzo[c][1,2,5]oxadiazol-4-yl)amino)-4-oxobutanoic acid], the invasion ability result with PANC-1 cells is “significantly inhibited”. Moreover, in the series with MDA-MB-231 cells (20 μM, FIG. 1), the “migration of MDA-MD-231 cells” value is given as “inhibited the migration”. Also, the IC50 in the series on MDA-MB-231 cells (Homo sapiens, MDA-MB-231, 16 h, read-out: IC50 on migration) is 10.64 ± 0.09 µM. Moreover, the “growth of the cancer cells (tumors harvested on day 60)” value in the series with MDA-MB-231 breast cancer (10 mg/Kg, FIG. 2B) is listed as “suppresses the growth”. For the same compound, the “level of bioluminescence (tumor growth, IVIS)” value in the series with MDA-MB-231 breast cancer (10 mg/Kg/mouse/3 days, FIG. 2A) is on record as “remained at a relatively low level”. The “toxic effects (biochemistry tests of blood and body weight assessment)” value with MDA-MB-231 breast cancer (treated mice, data not shown) is recorded as “limited toxic effects”. The “selectivity ratio ST3GALI/ST3GALIII” value is listed as >287^d in series [1] (500 μM) and “(<575)^e” in series [1] (1 mM). For the same compound, the “metastatic lesions in livers (histological analysis)” value with PANC-1 pancreatic tumor (PANC-1 cells grown in fructose-containing medium) is on record as “suppressed”. The “progression of the tumor” value in the series on PANC-1 pancreatic tumor (PANC-1 cells pre-treated with FCW34, FIG. 5) was “halted significantly”. Besides, the “Liver lesions Incidence” value with PANC-1 pancreatic tumor (mice bearing pancreatic cancer) is 0/3.
